Reference: patent US11110209B2, “Intraluminal therapy system for gastrointestinal infections” (MACKAY MEDICAL FOUNDATION THE PRESBYTERIAN CHURCH IN TAIWAN …, priority 2017, dated 2021)

Experiment: Clinical study: gastric juice pH after irrigation
Format: in vivo
Conditions: patients; acetylcysteine (12 mg/ml) solution irrigation of gastric mucosa after two tablets of sublingual Takepron
Experimental: Ten patients having H. pylori infection without prior eradication therapy were enrolled. Before the intraluminal therapy, two tablets of proton pump inhibitor (Takepron) were sublingually administered to the patient. Using the system of the invention, the gastric mucosa was irrigated with acetylcysteine (12 mg/ml) solution to remove the acid and mucous on the gastric mucosa. The pH levels before and after irrigation were measured. The acidity of the gastric juice could be well controlled at around pH 5.0 after irrigation. The total dosage of acetylcysteine was less than 140 mg/kg. Then amoxicillin, metronidazole, clarithromycin, sucrate gel and distilled water were mixed to form a complex. […] The viscosities of the complexes were shown below.

CC(=O)N[C@@H](CS)C(=O)O [acetylcysteine]
pH of gastric juice after irrigation: ~5.0 pH
